Source: ChEMBL document CHEMBL1130376, “Effects of taxoids from Taxus cuspidata on microtubule depolymerization and vincristine accumulation in MDR cells” (Bioorg Med Chem Lett, 1997)
In brackets after ≈: the same amount, converted by molar mass.

Key:
[1] = Vincristine (VCR) accumulation in multidrug resistant human ovarian cancer 2780 AD cells at a concentration 1 ug/mL; format: functional
[2] = test system: L1210; experiment: Cytotoxicity against murine leukemia L1210 cells; format: functional, cell-based, Mus musculus
[3] = Vincristine (VCR) accumulation in multidrug resistant human ovarian cancer 2780 AD cells at a concentration 10 ug/mL; format: functional
[4] = Cytotoxicity against human epidermoid carcinoma KB cells; format: functional, cell-based
[5] = Mus musculus, L1210, read-out: IC50

SMILES | vincristine accumulation (% of control) [1] | IC50 [2, 5] | vincristine accumulation (% of control) [3] | IC50 [4] | IC50 ([2]; l1210)
CC(=O)O[C@H]1C[C@H]2[C@@H](OC(C)=O)/C=C3\C[C@](C)(C(=O)[C@H](O)C(=C1C)C2(C)C)[C@@H](OC(C)=O)C[C@@H]3OC(=O)/C=C/c1ccccc1 [TAXUSPINE B] | 219% | > 10 µg/mL | 713% | > 10 µg/mL | 
C=C1[C@@H](OC(=O)CC(c2ccccc2)N(C)C)CC[C@@]2(C)[C@@H](OC(C)=O)[C@H](OC(C)=O)C3=C(C)C(=O)C[C@@](O)([C@@H](OC(C)=O)[C@H]12)C3(C)C (stereo partly drawn) | 175% | 2.7 µg/mL (≈ 4.04 µM) | 466% | > 10 µg/mL | 
CC(=O)O[C@H]1C[C@H]2[C@@H](OC(C)=O)/C=C3\C[C@](C)(C(=O)[C@H](O)C(=C1C)C2(C)C)[C@@H](OC(C)=O)C[C@@H]3OC(=O)C(O)C(c1ccccc1)N(C)C (stereo partly drawn) | 119% | 7.1 µg/mL (≈ 10.4 µM) | 298% | > 10 µg/mL | 
C=C1[C@@H](O)C[C@H](OC(C)=O)[C@@]2(C)[C@@H](OC(C)=O)[C@H](OC(C)=O)C3=C(C)[C@@H](OC(C)=O)C[C@@H]([C@@H](O)[C@H]12)C3(C)C | 205% | 10 µg/mL (≈ 18.6 µM) | 439% | 7.4 µg/mL (≈ 13.8 µM) | 
C=C1[C@@H](OC(=O)CC(c2ccccc2)N(C)C)CC[C@@]2(C)[C@@H](OC(C)=O)[C@H](OC(C)=O)[C@@]34[C@H](C)C(=O)C[C@@H]([C@@H](OC(C)=O)C132)C4(C)C (stereo partly drawn) | 174% | > 10 µg/mL | 567% | 1.6 µg/mL (≈ 2.45 µM) | 
C=C1[C@@H](O)CC[C@@]2(C)[C@@H](OC(C)=O)[C@H](OC(C)=O)C3=C(C)C(=O)C[C@@](O)([C@@H](OC(C)=O)[C@H]12)C3(C)C | 152% | 6.2 µg/mL (≈ 12.6 µM) | 216% | 0.6 µg/mL (≈ 1.22 µM) | 
C=C1[C@@H](O)C[C@H](OC(C)=O)[C@@]2(C)[C@@H](OC(C)=O)[C@H](OC(=O)c3ccccc3)C3=C(C)[C@@H](OC(C)=O)C[C@@]3(C(C)(C)O)[C@@H](OC(C)=O)[C@H]12 | 158% | > 10 µg/mL | 313% | > 10 µg/mL | 
C=C1[C@@H](OC(=O)CC(c2ccccc2)N(C)C)CC[C@@]2(C)[C@@H](OC(C)=O)[C@H](OC(C)=O)C3=C(C)C(=O)C[C@@H]([C@@H](OC(C)=O)[C@H]12)C3(C)C (stereo partly drawn) | 177% | > 10 µg/mL | 704% | > 10 µg/mL | 
C=C1[C@@H](O)CC[C@@]2(C)[C@@H](OC(C)=O)[C@H](OC(C)=O)C3=C(C)C(=O)C[C@@H]([C@@H](O)[C@H]12)C3(C)C | 139% | > 10 µg/mL | 271% | > 10 µg/mL | 
C=C1[C@@H](O)C[C@H](O)[C@@]2(C)[C@@H](OC(C)=O)[C@H](OC(C)=O)C3=C(C)C(=O)C[C@@]3(C(C)(C)O)[C@@H](OC(C)=O)[C@H]12 | 151% | > 10 µg/mL | 191% | > 10 µg/mL | 
CC(=O)O[C@H]1C(=O)[C@@]2(C)[C@H]([C@H](OC(=O)c3ccccc3)[C@]3(O)C[C@H](OC(=O)[C@H](O)C(NC(=O)C4CCC4)c4ccccc4)C(C)=C1C3(C)C)[C@]1(OC(C)=O)CO[C@@H]1C[C@@H]2O (stereo partly drawn) | 88% | 0.25 µg/mL (≈ 0.301 µM) | 93% | 0.086 µg/mL (≈ 0.103 µM) | 
C=C1[C@@H](OC(=O)CC(c2ccccc2)N(C)C)C[C@H](OC(C)=O)[C@@]2(C)[C@@H](OC(C)=O)[C@H](OC(C)=O)[C@@]3(O)C(C)=C(OC(C)=O)C[C@@H]([C@@H](OC(C)=O)[C@H]12)C3(C)C (stereo partly drawn) | 133% | 2.5 µg/mL (≈ 3.25 µM) | 358% | 2.6 µg/mL (≈ 3.38 µM) | 
C=C1[C@@H](OC(=O)/C=C/c2ccccc2)CC[C@@]2(C)[C@@H](O)[C@H](OC(C)=O)C3=C(C)C(=O)C[C@@H]([C@@H](OC(C)=O)[C@H]12)C3(C)C | 173% | 1.1 µg/mL (≈ 1.95 µM) | 372% | 0.17 µg/mL (≈ 0.301 µM) | 
CC(=O)O[C@@]12CO[C@@H]1C[C@H](O)[C@@]1(C)C(=O)[C@H](O)C3=C(C)[C@@H](OC(=O)[C@H](O)C(NC(=O)c4ccccc4)c4ccccc4)C[C@@](O)([C@@H](OC(=O)c4ccccc4)[C@H]21)C3(C)C (stereo partly drawn) |  | 0.88 µg/mL (≈ 1.08 µM) |  | 0.015 µg/mL (≈ 0.0185 µM) | 
C=C1[C@@H](OC(=O)/C=C/c2ccccc2)C[C@H](OC(C)=O)[C@@]2(COC(C)=O)[C@@H](OC(C)=O)[C@H](O)[C@]3(O)[C@@]4(C)CO[C@]3(C)C(=O)C[C@H]4[C@@H](OC(C)=O)[C@H]12 [TAXUSPINE T] | 196% | 1 µg/mL (≈ 1.4 µM) | 308% | 0.06 µg/mL (≈ 0.0842 µM) | 
CCCCCC(=O)NC(c1ccccc1)[C@@H](O)C(=O)O[C@H]1C[C@@]2(O)[C@@H](OC(=O)c3ccccc3)[C@@H]3[C@]4(OC(C)=O)CO[C@@H]4C[C@H](O)[C@@]3(C)C(=O)[C@H](OC(C)=O)C(=C1C)C2(C)C (stereo partly drawn) |  | 0.21 µg/mL (≈ 0.248 µM) |  | 0.0053 µg/mL (≈ 0.00625 µM) | 

SMILES | vincristine accumulation (% of control) [1] | IC50 [2, 5] | vincristine accumulation (% of control) [3] | IC50 [4] | IC50 ([2]; l1210)
CC(=O)O[C@@]12CO[C@H]1C[C@H](O)[C@@]1(C)C(=O)[C@H](O)C3=C(C)[C@@H](O)C[C@@](O)([C@@H](OC(=O)c4ccccc4)[C@H]21)C3(C)C | 153% | > 10 µg/mL | 271% | > 10 µg/mL | 
CC(=O)O[C@H]1C(=O)[C@@]2(C)[C@H]([C@H](OC(=O)c3ccccc3)[C@]3(O)C[C@H](OC(=O)[C@H](O)[C@@H](NC(=O)c4ccccc4)c4ccccc4)C(C)=C1C3(C)C)[C@]1(OC(C)=O)CO[C@@H]1C[C@@H]2O [PACLITAXEL] | 83% |  | 56% |  | 
C=C1[C@@H](O)C[C@H](OC(C)=O)[C@@]2(C)[C@@H](OC(C)=O)[C@H](OC(C)=O)[C@]3(O)[C@@]4(C)CO[C@]3(C)C(=O)C[C@H]4[C@@H](OC(C)=O)[C@H]12 | 225% | > 10 µg/mL | 213% | > 10 µg/mL | 
C=C1[C@@H](OC(=O)/C=C/c2ccccc2)CC[C@@]2(C)[C@@H](OC(C)=O)[C@H](OC(C)=O)C3=C(C)C(=O)C[C@@H]([C@@H](OC(C)=O)[C@H]12)C3(C)C | 195% | > 10 µg/mL | 571% | > 10 µg/mL | 
CC(=O)O[C@H]1C[C@@H]2OC[C@@]2(OC(C)=O)[C@H]2[C@H](OC(C)=O)[C@]3(O)C[C@H](OC(=O)CC(c4ccccc4)N(C)C)C(C)=C([C@@H](OC(=O)c4ccccc4)[C@H](OC(C)=O)[C@]12C)C3(C)C (stereo partly drawn) |  | 7.8 µg/mL (≈ 9.2 µM) |  | > 10 µg/mL | 
C=C1[C@@H](O)CC[C@@]2(C)[C@@H](OC(C)=O)[C@H](OC(C)=O)C3=C(C)C(=O)C[C@@H]([C@@H](OC(C)=O)[C@H]12)C3(C)C [TAXININE A] | 153% | 8.9 µg/mL (≈ 18.7 µM) | 461% | > 10 µg/mL | 
CC(=O)O[C@H]1C[C@H]2OC[C@@]2(OC(C)=O)[C@H]2[C@H](OC(C)=O)[C@]3(C(C)(C)O)C[C@H](OC(=O)/C=C/c4ccccc4)C(C)=C3[C@@H](OC(=O)c3ccccc3)[C@H](OC(C)=O)[C@]12C [TAXCHININ B] | 219% | 3.8 µg/mL (≈ 4.73 µM) | 639% | > 10 µg/mL | 
C=C1[C@@H](OC(C)=O)CC[C@@]2(C)[C@@H](OC(C)=O)[C@H](OC(C)=O)C3=C(C)[C@@H](OC(C)=O)C[C@@H]([C@@H](OC(C)=O)[C@H]12)C3(C)C |  | > 10 µg/mL |  | > 10 µg/mL | 
C=C1[C@@H](OC(=O)/C=C/c2ccccc2)C[C@H](OC(C)=O)[C@]2(C)[C@@H]1C[C@]1(C(C)(C)O)C[C@H](OC(C)=O)C(C)=C1[C@@H](O)[C@@H]2OC(C)=O | 176% | 1.2 µg/mL (≈ 1.92 µM) | 584% | 5.8 µg/mL (≈ 9.28 µM) | 
CC(=O)O[C@@]12CO[C@@H]1C[C@H](O)[C@@]1(C)C(=O)[C@H](O)C3=C(C)[C@@H](OC(=O)[C@H](O)C(NC(=O)C4CCC4)c4ccccc4)C[C@@](O)([C@@H](OC(=O)c4ccccc4)[C@H]21)C3(C)C (stereo partly drawn) |  | 0.95 µg/mL (≈ 1.2 µM) |  | 0.0048 µg/mL (≈ 0.00608 µM) | 
CC(=O)O[C@H]1C(=O)[C@@]2(C)[C@H]([C@H](OC(=O)c3ccccc3)[C@]3(O)C[C@H](OC(=O)[C@H](O)[C@@H](NC(=O)c4ccccc4)c4ccccc4)C(C)=C1C3(C)C)[C@]1(OC(C)=O)CO[C@@H]1C[C@@H]2O (mixture of isomers) [PACLITAXEL] | 132% |  | 138% |  | 0.026 µg/mL
COc1ccc(CCN(C)CCCC(C#N)(c2ccc(OC)c(OC)c2)C(C)C)cc1OC (stereo not drawn) [VERAPAMIL] | 254% |  | 739% |  | 
CC(=O)O[C@H]1C[C@@H]2OC[C@@]2(OC(C)=O)[C@H]2[C@H](OC(=O)c3ccccc3)[C@]3(O)C[C@H](O)C(C)=C([C@@H](O)[C@H](O)[C@]12C)C3(C)C |  | 0.27 µg/mL (≈ 0.459 µM) |  | 0.08 µg/mL (≈ 0.136 µM) | 
CCCCCC(=O)NC(c1ccccc1)[C@@H](O)C(=O)O[C@H]1C[C@@]2(O)[C@@H](OC(=O)c3ccccc3)[C@@H]3[C@]4(OC(C)=O)CO[C@@H]4C[C@H](O)[C@@]3(C)C(=O)[C@H](O)C(=C1C)C2(C)C (stereo partly drawn) |  | 0.24 µg/mL (≈ 0.298 µM) |  | 0.0017 µg/mL (≈ 0.00211 µM) | 
CCCC(=O)NC(c1ccccc1)[C@@H](O)C(=O)O[C@H]1C[C@@]2(O)[C@@H](OC(=O)c3ccccc3)[C@@H]3[C@]4(OC(C)=O)CO[C@@H]4C[C@H](O)[C@@]3(C)C(=O)[C@H](OC(C)=O)C(=C1C)C2(C)C (stereo partly drawn) |  | 0.21 µg/mL (≈ 0.256 µM) |  | 0.016 µg/mL (≈ 0.0195 µM) | 
